# Measured values as given in patent US8501778B2, “Aralkyl piperidine derivatives and their uses as antalgic or ataractic agent” (priority 2008, dated 2013).
# Counter-ions that a name gives are not always drawn. Like-named read-outs stand apart in the source and are kept apart here. Marks after values point to notes of the source that are not given here.
# Key:
# [1] = tested on: Kunming mice; experiment: Acetic Acid Twisting Method in mice (antalgic effect); format: in vivo; conditions: for inhibition in vivo at 10 mg/kg / inhibition in vivo at 20 mg/kg / inhibition in vivo at 40 mg/kg: Mus musculus; for antalgic: single dosage 20 mg/kg, acetic acid twisting, unit not given (method: inhibiting rate %)
# [2] = tested on: Kunming mice; experiment: Hot Plate Method in mice (antalgic effect); format: in vivo
# [3] = tested on: Kunming mice; experiment: Sedative effect: spontaneous activity of the mice recorded with AC power tube; format: in vivo; conditions: single dosage 20 mg/kg, unit not given
# Protocol: Kunming mice, clean class KM, purchased from Shanghai SLAC LABORATORY ANIMAL CO. LTD, breeding at general environment.
# The compounds are formulated to solutions of 4 mg/ml, 2 mg/ml, and 1 mg/ml with water for injection. Animals in the control group and treatment group are all administered through subcutaneous injection at neck.
# First of all, the mice in the treatment group are administrated with a solution of tested compounds (10 mg/kg, 20 mg/kg, 40 mg/kg) through subcutaneous injection at neck, the negative control group is administrated with physiological saline (20 ml/kg) orally, and the positive control group is administrated with Aspirin (20 ml/kg) orally. Each group is administrated with 10 ml/kg of 0.7% acetic acid via intraperitoneal injection (i.p.) after one hour. After 5 minutes, times of twisting response of each group of mice is recorded in 15 minutes, and twisting response inhibiting rate of each of the treatment groups is calculated according to the following equation: Inhibiting rate %=(average twisting times of negative control group−average twisting times of treated group)/average twisting times of negative control group×100% 6. A Sedative Effect is Evaluated by Using AC Power Tube to Record Spontaneous Activity of the Mice. 7. Testing the Antalgic and Sedative Effect of the Compounds with Single Dosage (20 mg/kg), See Table 2 for Details.
# [4] = tested on: mice; conditions: mouse, in vivo
# [5] = tested on: S. typhimurium TA97, TA98, TA100 and TA102; experiment: Bacterial Reverse-Mutation Assay (Ames TS); format: cell-based
# Description: Strains: S. typhimurium TA97, TA98, TA100 and TA102.
# Results: The assay included two parts: without S9 and with S9.
# [6] = tested on: mice; conditions: daily for eight days; III-15 60 mg/kg oral gavage, Morphine 10 mg/kg PO; Hot Plate 15 minutes after each administration
# [7] = tested on: mice; experiment: Jump test in mice (physical dependence, naloxone precipitated); conditions: III-15 seven times in two days, 20-120 mg/kg PO, naloxone 2 mg/kg i.v. three hours after last dosing
# [8] = Animal model studies, summary (oral absorption, therapeutic index); conditions: summary statement
# [9] = tested on: mice; experiment: Conditioned Place Preference test in mice (psychological dependence); conditions: III-15 60 mg/kg oral gavage each day for six consecutive days
# [10] = po, 10 mg/kg, gavage administration, mice, read-out: twisting response inhibiting rate (%)
# [11] = po, 20 mg/kg, gavage administration, mice, read-out: twisting response inhibiting rate (%)
# [12] = po, 40 mg/kg, gavage administration, mice, read-out: twisting response inhibiting rate (%)
# [13] = Mus musculus, po, 1 h, 10 mg/kg, gavage administration, hot plate, read-out: Increasing rate of pain threshold (%)
# [14] = Mus musculus, po, 1 h, 20 mg/kg, gavage administration, hot plate, read-out: Increasing rate of pain threshold (%)
# [15] = sc, 10 mg/kg, subcutaneous injection at neck, mice, read-out: twisting response inhibiting rate (%)
# [16] = sc, 20 mg/kg, subcutaneous injection at neck, mice, read-out: twisting response inhibiting rate (%)
# [17] = sc, 40 mg/kg, subcutaneous injection at neck, mice, read-out: twisting response inhibiting rate (%)
# [18] = Mus musculus, sc, 10 mg/kg, subcutaneous injection at neck, 1 hour after dosing, hot plate 55.5° C., read-out: Increasing rate of pain threshold (%)
# [19] = Mus musculus, sc, 20 mg/kg, subcutaneous injection at neck, 1 hour after dosing, hot plate 55.5° C., read-out: Increasing rate of pain threshold (%)
# [20] = Mus musculus, sc, 40 mg/kg, subcutaneous injection at neck, 1 hour after dosing, hot plate 55.5° C., read-out: Increasing rate of pain threshold (%)
# [21] = sc, read-out: twisting response inhibiting rate (%)
compound,measurement,setting,value
"OC(CC1(O)CCN(C(c2ccccc2)c2ccccc2)CC1)c1ccccc1 (centres unmarked) [Compound V-3, N-diphenylmethyl-4-(2-hydroxy-2-phenylethyl)-4-piperidinol hydrochloride]",inhibition in vivo at 10 mg/kg,[1]; [10],60.6%
same,inhibition in vivo at 20 mg/kg,[1]; [11],49.8%
same,inhibition in vivo at 40 mg/kg,[1]; [12],68.1%
same,inhibition in vivo at 20 mg/kg,"[1]; sc, read-out: antalgic",84%
same,change in vivo at 10 mg/kg,[2]; [13],64.1%
same,change in vivo at 20 mg/kg,[2]; [14],86.8%
same,change in vivo at 40 mg/kg,"[2]; Mus musculus, po, 1 h, 40 mg/kg, gavage administration, hot plate, read-out: Increasing rate of pain threshold (%)",136%
"CC(=O)Nc1ccc(CN2CCC(O)(CC(O)c3ccccc3)CC2)cc1.Cl (centres unmarked) [Compound V-2, N-p-acetylaminobenzyl-4-(2-hydroxy-2-phenylethyl)-4-piperidinol hydrochloride]",antalgic,[1]; mice,80
same,sedative,[3],39.6
"O=C(CC1(O)CCN(Cc2ccccc2)CC1)c1ccccc1 [III-1, N-benzyl-4-benzoylmethyl-4-piperidinol hydrochloride]",inhibition in vivo at 20 mg/kg,"[1]; sc, read-out: antalgic",62%
same,inhibition in vivo at 10 mg/kg,[1]; [15],73.3%
same,inhibition in vivo at 20 mg/kg,[1]; [16],59.4%
same,inhibition in vivo at 40 mg/kg,[1]; [17],91.1%
same,change in vivo at 10 mg/kg,[2]; [18],99.7%
same,change in vivo at 20 mg/kg,[2]; [19],89%
same,change in vivo at 40 mg/kg,[2]; [20],148%
"Nc1ccc(CN2CCC(O)(CC(=O)c3ccccc3)CC2)cc1 [III-5, N-p-aminobenzyl-4-benzoylmethyl-4-piperidinol hydrochloride]",inhibition in vivo at 20 mg/kg,"[1]; sc, read-out: antalgic",100%
same,inhibition in vivo at 10 mg/kg,[1]; [21],100%
same,inhibition in vivo at 20 mg/kg,[1]; [21],100%
same,inhibition in vivo at 40 mg/kg,[1]; [21],100%
same,change in vivo at 10 mg/kg,[2]; [18],58.3%
same,change in vivo at 20 mg/kg,[2]; [19],75.6%
same,change in vivo at 40 mg/kg,[2]; [20],190%
"COC1(CC(=O)c2ccccc2)CCN(Cc2ccc(NC(C)=O)cc2)CC1.Cl [VIII-1, N-p-acetylaminobenzyl-4-benzoylmethyl-4-methoxylpiperidine hydrochloride]",twisting response inhibiting rate (%),"[1]; 10 mg/kg, subcutaneous injection at neck, mice",35.03* %
same,twisting response inhibiting rate (%),"[1]; 20 mg/kg, subcutaneous injection at neck, mice",42.11%
same,twisting response inhibiting rate (%),"[1]; 40 mg/kg, subcutaneous injection at neck, mice",57.69%
same,antalgic,[1]; mice,64
same,sedative,[3],48
same,Increasing rate of pain threshold (%),"[2]; 10 mg/kg, subcutaneous injection at neck, 1 hour after dosing, hot plate 55.5° C.",61.04%
same,Increasing rate of pain threshold (%),"[2]; 20 mg/kg, subcutaneous injection at neck, 1 hour after dosing, hot plate 55.5° C.",76.63* %
same,Increasing rate of pain threshold (%),"[2]; 40 mg/kg, subcutaneous injection at neck, 1 hour after dosing, hot plate 55.5° C.",105.20* %
"O=C(CC1(O)CCN(Cc2ccc([N+](=O)[O-])cc2)CC1)c1ccccc1 [III-4, N-p-nitrobenzyl-4-benzoylmethyl-4-piperidinol hydrochloride]",inhibition in vivo at 20 mg/kg,"[1]; sc, read-out: antalgic",100%
same,inhibition in vivo at 10 mg/kg,[1]; [21],100%
same,inhibition in vivo at 20 mg/kg,[1]; [21],100%
same,inhibition in vivo at 40 mg/kg,[1]; [21],100%
same,change in vivo at 10 mg/kg,[2]; [18],19.8%
same,change in vivo at 20 mg/kg,[2]; [19],6.47%
same,change in vivo at 40 mg/kg,[2]; [20],15.9%
"COc1ccc(CN2CCC(O)(CC(=O)c3ccccc3)CC2)cc1.Cl [III-15, N-p-methoxybenzyl-4-benzoylmethyl-4-piperidinol hydrochloride]",inhibition in vivo at 20 mg/kg,"[1]; sc, read-out: antalgic",96%
same,inhibition in vivo at 10 mg/kg,[1]; [21],55.4%
same,inhibition in vivo at 20 mg/kg,[1]; [21],94.4%
same,inhibition in vivo at 40 mg/kg,[1]; [21],100%
same,change in vivo at 10 mg/kg,[2]; [18],77.7%
same,change in vivo at 20 mg/kg,[2]; [19],118%
same,change in vivo at 40 mg/kg,[2]; [20],260%
same,reversal of the antalgic effect by naloxone,[4],does not reversed by naloxone
same,Ames test result (revertants),"[5]; TA97, TA98, TA100, TA102, without S9 and with S9, all tested doses",negative
same,inhibitory effect on bacterial growth,"[5]; without S9 TA98 5000 μg/plate and with S9 TA97 5000 μg/plate, no inhibition at all other doses and strains",inhibitory effects on bacterial for the growth were seen
same,change of pain threshold / antalgic effect on consecutive administration (drug resistance),[6],does not show weakening
same,jumping behavior after naloxone (physical dependence),[7],no jumping behavior is observed
same,absorption after oral administration,[8],good absorption after oral administration
same,Conditioned Place Preference (psychological dependence),[9],do not show Conditioned Place Preference
"COc1ccc(C(C)N2CCC(F)(CC(=O)c3ccccc3)CC2)cc1 (centres unmarked) [IX-1, N-(1-(p-methoxyphenyl)ethyl)-4-benzoylmethyl-4-fluoropiperidine hydrochloride]",inhibition in vivo at 20 mg/kg,"[1]; sc, read-out: antalgic",76%
same,inhibition in vivo at 10 mg/kg,[1]; [15],60.4%
same,inhibition in vivo at 20 mg/kg,[1]; [16],68.7%
same,inhibition in vivo at 40 mg/kg,[1]; [17],81%
same,change in vivo at 10 mg/kg,[2]; [18],86.4%
same,change in vivo at 20 mg/kg,[2]; [19],109%
same,change in vivo at 40 mg/kg,[2]; [20],156%
"O=C(CC1(O)CCN(Cc2ccc(F)cc2)CC1)c1ccccc1 [III-3, N-p-fluorobenzyl-4-benzoylmethyl-4-piperidinol hydrochloride]",inhibition in vivo at 20 mg/kg,"[1]; sc, read-out: antalgic",76%
same,inhibition in vivo at 10 mg/kg,[1]; [15],69.4%
same,inhibition in vivo at 20 mg/kg,[1]; [16],77.2%
same,inhibition in vivo at 40 mg/kg,[1]; [17],71.5%
same,change in vivo at 10 mg/kg,[2]; [18],11.9%
same,change in vivo at 20 mg/kg,[2]; [19],18.5%
same,change in vivo at 40 mg/kg,[2]; [20],29.4%
"CC(=O)Nc1ccc(CN2CCC(O)(CC(=O)c3ccccc3)CC2)cc1.Cl [III-6, N-p-acetylaminobenzyl-4-benzoylmethyl-4-piperidinol hydrochloride]",antalgic,[1]; mice,45
same,sedative,[3],75
"CC(c1ccc(N2CCOCC2)cc1)N1CCC(Cl)(CC(=O)c2ccccc2)CC1 (centres unmarked) [IX-7, N-(1-(4-morpholinophenyl)ethyl)-4-benzoylmethyl-4-chloropiperidine hydrochloride]",inhibition in vivo at 20 mg/kg,"[1]; sc, read-out: antalgic",72%
same,inhibition in vivo at 10 mg/kg,[1]; [15],66%
same,inhibition in vivo at 20 mg/kg,[1]; [16],60.3%
same,inhibition in vivo at 40 mg/kg,[1]; [17],76.4%
same,change in vivo at 10 mg/kg,[2]; [18],79.5%
same,change in vivo at 20 mg/kg,[2]; [19],101%
same,change in vivo at 40 mg/kg,[2]; [20],130%
"CN1CC[C@]23c4c5ccc(O)c4O[C@H]2[C@@H](O)C=C[C@H]3[C@H]1C5 [Morphine, reference compound]",change in vivo at 2 mg/kg,"[2]; Mus musculus, sc, 1 h, positive control, 2 mg/kg (remark), subcutaneous injection, hot plate, read-out: Increasing rate of pain threshold (%)",202%
same,reversal of the antalgic effect by naloxone,[4],is reversed by naloxone
same,change of pain threshold / antalgic effect on consecutive administration (drug resistance),[6],reduces gradually starting from the second day of administration
same,jumping behavior after naloxone (physical dependence),[7],obvious jumping behavior
same,Conditioned Place Preference (psychological dependence),[9],show obvious Conditioned Place Preference
"O=C(CC1(O)CCN(C(c2ccccc2)c2ccccc2)CC1)c1ccccc1 [III-7, N-diphenylmethyl-4-benzoylmethyl-4-piperidinol hydrochloride]",inhibition in vivo at 10 mg/kg,[1]; [10],25.8%
same,inhibition in vivo at 20 mg/kg,[1]; [11],38%
same,inhibition in vivo at 40 mg/kg,[1]; [12],44.2%
same,inhibition in vivo at 20 mg/kg,"[1]; sc, read-out: antalgic",45%
same,change in vivo at 10 mg/kg,[2]; [13],82.8%
same,change in vivo at 20 mg/kg,[2]; [14],126%
